These results are taken from patent US8268814B2, “Substituted sulfonamide compounds” (Gruenenthal GmbH, priority 2008, dated 2012).

Molecules are shown by their SMILES.

The target in the first assay is T1, B1R receptor of the rat (rB1R) (Rattus norvegicus, UniProt P97583).
T1 construct: expressed in transfected cells; host or cells: CHO K1 cells (Chinese hamster ovary), stably transfected
T1 sequence (P97583 1-337): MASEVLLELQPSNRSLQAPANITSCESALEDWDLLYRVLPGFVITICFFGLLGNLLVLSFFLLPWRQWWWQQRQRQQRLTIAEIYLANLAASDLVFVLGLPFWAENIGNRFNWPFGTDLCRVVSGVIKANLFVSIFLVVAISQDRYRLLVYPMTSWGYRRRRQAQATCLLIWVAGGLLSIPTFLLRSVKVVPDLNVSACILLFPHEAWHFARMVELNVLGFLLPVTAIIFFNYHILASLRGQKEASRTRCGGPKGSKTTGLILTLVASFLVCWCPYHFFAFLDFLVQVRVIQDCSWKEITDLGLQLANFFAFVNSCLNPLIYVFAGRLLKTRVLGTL
In words: Functional FLIPR Ca2+ assay on the bradykinin 1 receptor, rat (rB1R CHO K1 cells). In kind it is cell-based. As to conditions: test substance 10 μM; CHO K1 cells transfected with rat B1R gene; agonist Des-Arg9-bradykinin at EC80; % inhibition compared with maximum achievable inhibition; read-out: B1R antagonism, rat [10 μM] % inhibition. How it is done:
(§1) The agonistic or antagonistic action of substances can be quantified on the bradykinin 1 receptor (B1R) of the human and rat species with ectopically expressing cell lines (CHO K1 cells) and with the aid of a Ca^2+-sensitive dyestuff (Fluo-4) in a fluorescent imaging plate reader (FLIPR). The figure in % activation is based on the Ca^2+ signal after addition of Lys-Des-Arg^9-bradykinin (0.5 nM) or Des-Arg^9-bradykinin (100 nM). Antagonists lead to a suppression of the Ca^2+ inflow after addition of the agonist. % inhibition compared with the maximum achievable inhibition is stated.
(§2) The agonistic or antagonistic action of substances can be determined on the bradykinin 1 receptor (B1R) of the human and rat species with the following assay. In accordance with this assay, the Ca^2+ inflow through the channel is quantified with the aid of a Ca^2+-sensitive dyestuff (type Fluo-4, Molecular Probes Europe BV, Leiden, Holland) in a fluorescent imaging plate reader (FLIPR, Molecular Devices, Sunnyvale, USA).
(§3) Chinese hamster ovary cells (CHO K1 cells) transfected stably with the human B1R gene (hB1R cells) or the B1R gene of the rat (rB1R cells) are used. For functional studies, these cells are plated out on black 96-well plates with a clear base (BD Biosciences, Heidelberg, Germany or Greiner, Frickenhausen, Germany) in a density of 20,000-35,000 cells/well. The cells are left overnight at 37° C. and 5% CO2 in culture medium (hB1R cells: Nutrient Mixture Ham's F12, Gibco Invitrogen GmbH, Karlsruhe, Germany or DMEM, Sigma-Aldrich, Taufkirchen, Germany; rB1R cells: D-MEM/F12, Gibco Invitrogen GmbH, Karlsruhe, Germany) with 10 vol. % FBS (foetal bovine serum, Gibco Invitrogen GmbH, Karlsruhe, Germany or PAN Biotech GmbH, Aidenbach, Germany). On the following day, the cells are loaded for 60 min at 37° C. with 2.13 μM Fluo-4 (Molecular Probes Europe BV, Leiden, Holland) in HBSS buffer (Hank's buffered saline solution, Gibco Invitrogen GmbH, Karlsruhe, Germany) with 2.5 mM probenecid (Sigma-Aldrich, Taufkirchen, Germany) and 10 mM HEPES (Sigma-Aldrich, Taufkirchen, Germany). The plates are then washed 2× with HBSS buffer, and HBSS buffer which additionally contains 0.1% BSA (bovine serum albumin; Sigma-Aldrich, Taufkirchen, Germany), 5.6 mM glucose and 0.05% gelatine (Merck KgaA, Darmstadt, Germany) is added. After a further incubation of 20 minutes at room temperature, the plates are inserted into the FLIPR for the Ca^2+ measurement.
(§4) Alternatively, the plates are washed with buffer A (15 mM HEPES, 80 mM NaCl, 5 mM KCl, 1.2 mM CaCl2, 0.7 mM MgSO4, 2 g/l glucose, 2.5 mM probenecid), buffer A is added and the plates are loaded with 2.5 μM Fluo-4 and 0.025% Pluronic F127 (Sigma-Aldrich, Taufkirchen, Germany). Thereafter, the cells are washed 2× with buffer A and incubated for 30 minutes with buffer A, which additionally contains 0.05% BSA and 0.05% gelatine, at room temperature and thereafter inserted into the FLIPR for the Ca^2+ measurement. The Ca^2+-dependent fluorescence is measured here before and after addition of substances (λex=488 nm, λem=540 nm). Quantification is by measurement of the highest fluorescence intensity (FC, fluorescence counts) over time.
(§5) The FLIPR protocol consists of 2 additions of substance. Test substances (10 μM) are first pipetted on to the cells and the Ca^2+ inflow is compared with the control (hB1R: Lys-Des-Arg^9-bradykinin >=50 nM; rB1R: Des-Arg^9-bradykinin 10 μM). This gives the figure in % activation based on the Ca^2+ signal after addition of Lys-Des-Arg^9-bradykinin (>=50 nM) or Des-Arg^9-bradykinin (10 μM). After incubation for 10-20 minutes, Lys-Des-Arg^9-bradykinin (hB1R) or Des-Arg^9-bradykinin (rB1R) in the concentration of the EC80 is applied and the inflow of Ca^2+ is likewise determined. Antagonists lead to a suppression of the Ca^2+ inflow. % inhibition compared with the maximum achievable inhibition is calculated. In order to determine the IC50 value, the substances are added in various concentrations. […]
The inhibition is the drop in the measured response relative to a control, in per cent. Turning to `COc1cc(C)c(S(=O)(=O)N2CCCCC2COCC(=O)N2CCc3sccc3C2c2ccccc2)c(C)c1` (stereo not drawn) [Example 15, 2-((1-(4-methoxy-2,6-dimethylphenylsulfonyl)piperidin-2-yl)methoxy)-1-(4-phenyl-6,7-dihydrothieno[3,2-c]pyridin-5(4H)-yl)ethanone], the inhibition at 10 µM came to 98%. As for `COc1cc(C)c(S(=O)(=O)N2c3ccccc3OCC2COCC(=O)N2CCc3[nH]cnc3C2c2ccccc2)c(C)c1` (stereo not drawn) [Example 92, 2-[[4-[(4-Methoxy-2,6-dimethyl-phenyl)sulfonyl]-3,4-dihydro-2H-[1,4]benzoxazin-3-yl]-methoxy]-1-(4-phenyl-4,5,6,7-tetrahydro-1H-imidazo[4,5-c]pyridin-5-yl)-ethanone], the inhibition at 10 µM is 94%. Take `Cc1cccc(Cl)c1S(=O)(=O)N1CCCCC1CCCC(=O)N1CCc2[nH]cnc2C1c1ccccc1` (stereo not drawn) [Example 69, 4-[1-[(2-Chloro-6-methyl-phenyl)sulfonyl]-piperidin-2-yl]-1-(4-phenyl-4,5,6,7-tetrahydro-1H-imidazo[4,5-c]pyridin-5-yl)-butan-1-one]: the inhibition at 10 µM amounted to 64%. The same measure, in the same setting: the value for `COc1cc(C)c(S(=O)(=O)N(CCOCC(=O)N2CCc3[nH]cnc3C2c2ccccc2)Cc2ccccc2)c(C)c1` (stereo not drawn) [Example 82, N-Benzyl-4-Methoxy-2,6-dimethyl-N-[2-[2-oxo-2-(4-phenyl-4,5,6,7-tetrahydro-1H-imidazo[4,5-c]pyridin-5-yl)-ethoxy]-ethyl]-benzenesulfonic acid amide] was 100%. On the same count and under the same terms, the figure for `O=C(COCC1CCCCN1S(=O)(=O)c1ccccc1C(F)(F)F)N1CCc2[nH]cnc2C1c1ccccc1` (stereo not drawn) [Example 98, 1-(4-Phenyl-4,5,6,7-tetrahydro-1H-imidazo[4,5-c]pyridin-5-yl)-2-[[1-[[2-(trifluoromethyl)-phenyl]sulfonyl]-piperidin-2-yl]-methoxy]-ethanone] is 98%; for `COc1cc(C)c(S(=O)(=O)N2CCCCC2COCCC(=O)N2CCc3[nH]cnc3C2c2ccccc2)c(C)c1` (stereo not drawn) [Example 100, 3-[[1-[(4-Methoxy-2,6-dimethyl-phenyl)sulfonyl]-piperidin-2-yl]-methoxy]-1-(4-phenyl-4,5,6,7-tetrahydro-1H-imidazo[4,5-c]pyridin-5-yl)-propan-1-one] it is 101%; for `COc1cc(C)c(S(=O)(=O)N(C)CCOCC(=O)N2CCc3[nH]cnc3C2c2ccccc2)c(C)c1C` (stereo not drawn) [Example 96, 4-Methoxy-N,2,3,6-tetramethyl-N-[2-[2-oxo-2-(4-phenyl-4,5,6,7-tetrahydro-1H-imidazo[4,5-c]pyridin-5-yl)-ethoxy]-ethyl]-benzenesulfonic acid amide] it is 54%. The same measure, in the same setting: the value for `COc1cc(C)c(S(=O)(=O)N2c3ccccc3CCC2COCC(=O)N2CCc3sc(CN4CCN(C)CC4)cc3C2)c(C)c1` (stereo not drawn) [Example 85, 2-[[1-[(4-Methoxy-2,6-dimethyl-phenyl)sulfonyl]-1,2,3,4-tetrahydro-quinolin-2-yl]-methoxy]-1-[2-[(4-methyl-piperazin-1-yl)-methyl]-4,5,6,7-tetrahydro-thieno[3,2-c]pyridin-5-yl]-ethanone] was 102%; that for `COc1cc(C)c(S(=O)(=O)N(C)CCOCC(=O)N2CCc3[nH]cnc3C2c2ccccc2)c(C)c1` (stereo not drawn) [Example 66, 4-Methoxy-N,2,6-trimethyl-N-[2-[2-oxo-2-(4-phenyl-4,5,6,7-tetrahydro-1H-imidazo[4,5-c]pyridin-5-yl)-ethoxy]-ethyl]-benzenesulfonic acid amide] was 97%; that for `COc1cc(C)c(S(=O)(=O)N2CCCCC2COCCC(=O)N2CCc3sc(CN4CCN(C)CC4)cc3C2)c(C)c1` (stereo not drawn) [Example 99, 3-[[1-[(4-Methoxy-2,6-dimethyl-phenyl)sulfonyl]-piperidin-2-yl]-methoxy]-1-[2-[(4-methyl-piperazin-1-yl)-methyl]-4,5,6,7-tetrahydro-thieno[3,2-c]pyridin-5-yl]-propan-1-one] was 98%. As to `Cc1cc(S(=O)(=O)N2CCCCC2CCC(=O)N2CCc3onc(C(=O)N4CCCCC4)c3C2)c(C)cc1Cl` (stereo not drawn) [Example 04, 3-(1-(4-chloro-2,5-dimethylphenylsulfonyl)piperidin-2-yl)-1-(3-(piperidine-1-carbonyl)-6,7-dihydroisoxazolo[4,5-c]pyridin-5(4H)-yl)propan-1-one], the inhibition at 10 µM was determined as 56%.

With `COc1cc(C)c(S(=O)(=O)N(CCOCC(=O)N2CCc3sc(CN4CCN(C)CC4)cc3C2)Cc2ccc3c(c2)OCOC3)c(C)c1` [Example 78, N-(4H-[1,3]Benzodioxin-7-yl-methyl)-4-methoxy-2,6-dimethyl-N-[2-[2-[2-[(4-methyl-piperazin-1-yl)-methyl]-4,5,6,7-tetrahydro-thieno[3,2-c]pyridin-5-yl]-2-oxo-ethoxy]-ethyl]-benzenesulfonic acid amide], the inhibition at 10 µM turned out to be 98%.

On to `CN1CCN(Cc2cc3c(s2)CCN(C(=O)CCCC2CCCCN2S(=O)(=O)c2ccccc2C(F)(F)F)C3)CC1` (stereo not drawn) [Example 87, 1-[2-[(4-Methyl-piperazin-1-yl)-methyl]-4,5,6,7-tetrahydro-thieno[3,2-c]pyridin-5-yl]-4-[1-[[2-(trifluoromethyl)-phenyl]sulfonyl]-piperidin-2-yl]-butan-1-one], for which the inhibition at 10 µM stood at 103%.

In the next assay the target is T2, human B1R receptor (hB1R) (Homo sapiens, UniProt P46663).
T2 construct: expressed in transfected cells; host or cells: CHO K1 cells (Chinese hamster ovary), stably transfected
T2 sequence (P46663 1-353): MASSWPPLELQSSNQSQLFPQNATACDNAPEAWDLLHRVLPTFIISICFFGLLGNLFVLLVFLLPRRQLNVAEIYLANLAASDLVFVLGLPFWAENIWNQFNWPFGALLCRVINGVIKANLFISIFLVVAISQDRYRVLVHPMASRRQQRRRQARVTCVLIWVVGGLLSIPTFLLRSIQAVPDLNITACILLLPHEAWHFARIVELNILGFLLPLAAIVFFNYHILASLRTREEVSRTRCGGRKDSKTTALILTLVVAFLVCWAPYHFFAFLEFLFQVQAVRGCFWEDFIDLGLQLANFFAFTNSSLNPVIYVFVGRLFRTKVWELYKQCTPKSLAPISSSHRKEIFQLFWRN
Description: Functional FLIPR Ca2+ assay on the bradykinin 1 receptor, human (hB1R CHO K1 cells). In kind it is cell-based. The settings on record: test substance 10 μM; CHO K1 cells transfected with human B1R gene; agonist Lys-Des-Arg9-bradykinin at EC80; % inhibition compared with maximum achievable inhibition; read-out: B1R antagonism, human (10 μM] % inhibition. How it is done:
as §1, §2, §3, §4, §5
Consider `COc1cc(C)c(S(=O)(=O)N2CCCCC2COCC(=O)N2CCc3sccc3C2c2ccccc2)c(C)c1` (stereo not drawn) [Example 15, 2-((1-(4-methoxy-2,6-dimethylphenylsulfonyl)piperidin-2-yl)methoxy)-1-(4-phenyl-6,7-dihydrothieno[3,2-c]pyridin-5(4H)-yl)ethanone], for which the inhibition at 10 µM is 69%. For the compound `COc1cc(C)c(S(=O)(=O)N2CCCC[C@H]2COCC(=O)N2CCc3sc(CN4CCCN(C)CC4)cc3C2)c(C)c1` [Example 64, 2-[[(2S)-1-[(4-methoxy-2,6-dimethyl-phenyl)sulfonyl]-piperidin-2-yl]-methoxy]-1-[2-[(4-methyl-[1,4]diazepan-1-yl)-methyl]-4,5,6,7-tetrahydro-thieno[3,2-c]pyridin-5-yl]-ethanone], the inhibition at 10 µM turned out to be 100%.
